Converted amounts (≈) assume the structure as drawn. Like-named read-outs stand apart in the source and are kept apart here.
How the values were obtained:
[1] = tested on: Enterococcus faecalis—S613 HM-334; test: MIC, broth microdilution in TSB; type: cell-based; conditions: TSB
In short: (§1)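 CLSI broth microdilution: overnight agar-grown enterococci adjusted to 0.5 McFarland, diluted in TSB to about 5×10^5 CFU/mL, then exposed to serially diluted compounds. Incubated aerobically at 37 °C for 18-20 h. MIC is the lowest concentration giving no visible growth.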

[2] = tested on: Enterococcus faecium E417-HM-965; test: MIC, broth microdilution in TSB; type: cell-based; conditions: TSB
In short: as §1

[3] = tested on: Enterococcus faecium Patient #2-1-NR-31909; test: MIC, broth microdilution in TSB; type: cell-based; conditions: TSB
In short: as §1

[4] = tested on: Enterococcus faecium Patient #3-1 NR-31912; test: MIC, broth microdilution in TSB; type: cell-based; conditions: TSB
In short: as §1

[5] = tested on: Enterococcus fecalis Strain MMH594-NR31975; test: MIC, broth microdilution in TSB; type: cell-based; conditions: TSB
In short: as §1

[6] = tested on: Enterococcus fecalis Strain SF 24397 NR31970; test: MIC, broth microdilution in TSB; type: cell-based; conditions: TSB
In short: as §1

[7] = tested on: Enterococcus fecalis Strain SF 28073-NR31972; test: MIC, broth microdilution in TSB; type: cell-based; conditions: TSB
In short: as §1

[8] = tested on: Enterococcus fecalis Strain SF24413 NR31971; test: MIC, broth microdilution in TSB; type: cell-based; conditions: TSB
In short: as §1

[9] = tested on: MRSA NRS 384 (MRSA USA300); test: MIC against Staphylococci, broth microdilution; type: cell-based, Staphylococcus aureus; conditions: TSB
In short: (§2)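 CLSI broth microdilution in tryptone soy broth, inoculum about 5×10^5 CFU/mL from overnight agar cultures at 0.5 McFarland, with serially diluted compound. Plates were incubated aerobically at 37° C for 18-20 h. MIC was the lowest concentration with no visible growth.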

[10] = tested on: Staphylococcus epidermidis NRS 101; test: MIC against Staphylococci, broth microdilution; type: cell-based; conditions: TSB
In short: as §2

[11] = tested on: Bifidobacterium longum subsp. Longum—44B HM 845; test: MIC against human normal gut microbiota; type: cell-based; conditions: BHIS broth, anaerobic, 48 hours
In short: (§3)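 Anaerobic gut strains in hemin/vitamin K/L-cysteine-supplemented BHI, Lactobacillus in MRS with 5% CO2. All at ~5×10^5 CFU/ml and 37° C, with 48 h exposure to compound dilution series.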

[12] = tested on: Lactobacillus casei ATCC 334; test: MIC against human normal gut microbiota; type: cell-based; conditions: MRS broth, 5% CO2, 48 hours
In short: as §3

[13] = tested on: Lactobacillus gasseri EX336960VC03 HIM-400; test: MIC against human normal gut microbiota; type: cell-based; conditions: MRS broth, 5% CO2, 48 hours
In short: as §3

[14] = tested on: Mutant-2 of Enterococcus fecalis NR 31975; test: microbe, parasite or virus in culture; type: cell-based
[15] = tested on: Mutant-3 of Enterococcus fecalis NR 31975; test: microbe, parasite or virus in culture; type: cell-based
[16] = tested on: Mutant-4 of Enterococcus fecalis NR 31975; test: microbe, parasite or virus in culture; type: cell-based
[17] = tested on: Mutant-5 of Enterococcus fecalis NR 31975; test: microbe, parasite or virus in culture; type: cell-based
[18] = tested on: Mutant-6 of Enterococcus fecalis NR 31975; test: microbe, parasite or virus in culture; type: cell-based
[19] = tested on: Mutant-7 of Enterococcus fecalis NR 31975; test: microbe, parasite or virus in culture; type: cell-based
[20] = tested on: Mutant-8 of Enterococcus fecalis NR 31975; test: microbe, parasite or virus in culture; type: cell-based
[21] = tested on: Mutant-9 of Enterococcus fecalis NR 31975; test: microbe, parasite or virus in culture; type: cell-based
[22] = tested on: Mutant-11 of Enterococcus fecalis NR 31975; test: microbe, parasite or virus in culture; type: cell-based
[23] = tested on: Mutant-12 of Enterococcus fecalis NR 31975; test: microbe, parasite or virus in culture; type: cell-based
[24] = tested on: Mutant-13 of Enterococcus fecalis NR 31975; test: microbe, parasite or virus in culture; type: cell-based
[25] = tested on: Mutant-14 of Enterococcus fecalis NR 31975; test: microbe, parasite or virus in culture; type: cell-based
[26] = tested on: Mutant-15 of Enterococcus fecalis NR 31975; test: microbe, parasite or virus in culture; type: cell-based
[27] = Enterococcus, Table 1, read-out: MIC
[28] = Enterococcus, Table 7, read-out: MIC in TSB
[29] = Enterococcus faecium, Table 1, read-out: MIC
[30] = Enterococcus faecium, Table 7, read-out: MIC in TSB

Structure (SMILES): NS(=O)(=O)c1nnc(NC(=O)CCC2CCCC2)s1 [CAI0015]
- MIC ([1]; Table 1): 0.125 µg/mL (≈ 0.411 µM)
- MIC in TSB ([1]; Table 7): 0.06 µg/mL (≈ 0.197 µM)
- MIC ([2]; Table 1): 0.25 µg/mL (≈ 0.821 µM)
- MIC in TSB ([2]; Table 7): 0.06 µg/mL (≈ 0.197 µM)
- MIC ([3]; Table 1): 0.125 µg/mL (≈ 0.411 µM)
- MIC in TSB ([3]; Table 7): 0.06 µg/mL (≈ 0.197 µM)
- MIC ([4]; Table 1): 1 µg/mL (≈ 3.29 µM)
- MIC in TSB ([4]; Table 7): 0.125 µg/mL (≈ 0.411 µM)
- MIC ([5]; Table 1): 0.06 µg/mL (≈ 0.197 µM)
- MIC in TSB ([5]; Table 7): 0.06 µg/mL (≈ 0.197 µM)
- MIC ([6]; Table 1): 0.125 µg/mL (≈ 0.411 µM)
- MIC in TSB ([6]; Table 7): 0.06 µg/mL (≈ 0.197 µM)
- MIC ([7]; Table 1): 0.125 µg/mL (≈ 0.411 µM)
- MIC in TSB ([7]; Table 7): 0.06 µg/mL (≈ 0.197 µM)
- MIC ([8]; Table 1): 0.06 µg/mL (≈ 0.197 µM)
- MIC in TSB ([8]; Table 7): 0.06 µg/mL (≈ 0.197 µM)
- MIC [9]: >64 µg/mL
- MIC [10]: >64 µg/mL
- MIC [11]: >64 µg/mL
- MIC [12]: >64 µg/mL
- MIC [13]: >64 µg/mL
- MIC ([14]; Mutant-2): 2 µg/mL (≈ 6.57 µM)
- MIC ([15]; Mutant-3): 1 µg/mL (≈ 3.29 µM)
- MIC ([16]; Mutant-4): 1 µg/mL (≈ 3.29 µM)
- MIC ([17]; Mutant-5): 1 µg/mL (≈ 3.29 µM)
- MIC ([18]; Mutant-6): 1 µg/mL (≈ 3.29 µM)
- MIC ([19]; Mutant-7): 0.25 µg/mL (≈ 0.821 µM)
- MIC ([20]; Mutant-8): 2 µg/mL (≈ 6.57 µM)
- MIC ([21]; Mutant-9): 1 µg/mL (≈ 3.29 µM)
- MIC ([22]; Mutant-11): 2 µg/mL (≈ 6.57 µM)
- MIC ([23]; Mutant-12): 2 µg/mL (≈ 6.57 µM)
- MIC ([24]; Mutant-13): 1 µg/mL (≈ 3.29 µM)
- MIC ([25]; Mutant-14): 1 µg/mL (≈ 3.29 µM)
- MIC ([26]; Mutant-15): 1 µg/mL (≈ 3.29 µM)

Structure (SMILES): CC(C)=CC(=O)Nc1nnc(S(N)(=O)=O)s1 [CAI0016, 3-Methyl-N-(5-sulfamoyl-1,3,4-thiadiazol-2-yl) but-2-enamide]
- MIC ([1]; Table 1): 0.5 µg/mL (≈ 1.91 µM)
- MIC in TSB ([1]; Table 7): 0.25 µg/mL (≈ 0.953 µM)
- MIC ([2]; Table 1): 0.25 µg/mL (≈ 0.953 µM)
- MIC ([3]; Table 1): 0.5 µg/mL (≈ 1.91 µM)
- MIC in TSB ([3]; Table 7): 0.25 µg/mL (≈ 0.953 µM)
- MIC ([4]; Table 1): 1 µg/mL (≈ 3.81 µM)
- MIC in TSB ([4]; Table 7): 0.5 µg/mL (≈ 1.91 µM)
- MIC ([5]; Table 1): 0.5 µg/mL (≈ 1.91 µM)
- MIC in TSB ([5]; Table 7): 0.25 µg/mL (≈ 0.953 µM)
- MIC ([6]; Table 1): 0.5 µg/mL (≈ 1.91 µM)
- MIC in TSB ([6]; Table 7): 0.25 µg/mL (≈ 0.953 µM)
- MIC ([7]; Table 1): 0.5 µg/mL (≈ 1.91 µM)
- MIC in TSB ([7]; Table 7): 0.5 µg/mL (≈ 1.91 µM)
- MIC ([8]; Table 1): 0.5 µg/mL (≈ 1.91 µM)
- MIC in TSB ([8]; Table 7): 0.5 µg/mL (≈ 1.91 µM)
- MIC [9]: >64 µg/mL
- MIC [10]: >64 µg/mL
- MIC [11]: >64 µg/mL
- MIC [12]: >64 µg/mL
- MIC [13]: >64 µg/mL
- MIC ([14]; Mutant-2): 8 µg/mL (≈ 30.5 µM)
- MIC ([15]; Mutant-3): 4 µg/mL (≈ 15.2 µM)
- MIC ([16]; Mutant-4): 8 µg/mL (≈ 30.5 µM)
- MIC ([17]; Mutant-5): 4 µg/mL (≈ 15.2 µM)
- MIC ([18]; Mutant-6): 16 µg/mL (≈ 61 µM)
- MIC ([19]; Mutant-7): 4 µg/mL (≈ 15.2 µM)
- MIC ([20]; Mutant-8): 4 µg/mL (≈ 15.2 µM)
- MIC ([21]; Mutant-9): 4 µg/mL (≈ 15.2 µM)
- MIC ([22]; Mutant-11): 4 µg/mL (≈ 15.2 µM)
- MIC ([23]; Mutant-12): 8 µg/mL (≈ 30.5 µM)
- MIC ([24]; Mutant-13): 4 µg/mL (≈ 15.2 µM)
- MIC ([25]; Mutant-14): 4 µg/mL (≈ 15.2 µM)
- MIC ([26]; Mutant-15): 8 µg/mL (≈ 30.5 µM)

Structure (SMILES): CCc1ccc(C(=O)Nc2nnc(S(N)(=O)=O)s2)cc1 [CAI0017, 4-Ethyl-N-(5-sulfamoyl-1,3,4-thiadiazol-2-yl)benzamide]
- MIC [1, 27]: 1 µg/mL (≈ 3.2 µM)
- MIC [1, 28]: 1 µg/mL (≈ 3.2 µM)
- MIC ([2]; Enterococcus faecium, E417HM965, Table 1, read-out: MIC): 0.25 µg/mL (≈ 0.8 µM)
- MIC ([2]; Enterococcus faecium, E417HM965, Table 7, read-out: MIC in TSB): 0.25 µg/mL (≈ 0.8 µM)
- MIC [3, 29]: 0.25 µg/mL (≈ 0.8 µM)
- MIC [3, 30]: 0.25 µg/mL (≈ 0.8 µM)
- MIC [4, 29]: 1 µg/mL (≈ 3.2 µM)
- MIC [4, 30]: 1 µg/mL (≈ 3.2 µM)
- MIC [5, 27]: 1 µg/mL (≈ 3.2 µM)
- MIC [5, 28]: 1 µg/mL (≈ 3.2 µM)
- MIC [6, 27]: 1 µg/mL (≈ 3.2 µM)
- MIC [6, 28]: 1 µg/mL (≈ 3.2 µM)
- MIC [7, 27]: 1 µg/mL (≈ 3.2 µM)
- MIC [7, 28]: 1 µg/mL (≈ 3.2 µM)
- MIC [8, 27]: 1 µg/mL (≈ 3.2 µM)
- MIC [8, 28]: 1 µg/mL (≈ 3.2 µM)
- MIC ([9]; Staphylococcus aureus, read-out: MIC): > 64 µg/mL
- MIC ([10]; Staphylococcus epidermidis, NRS101, read-out: MIC): > 64 µg/mL
- MIC ([11]; Bifidobacterium longum, read-out: MIC): > 64 µg/mL
- MIC ([12]; Lacticaseibacillus casei, ATCC334, read-out: MIC): > 64 µg/mL
- MIC ([13]; Lactobacillus gasseri, read-out: MIC): > 64 µg/mL
- MIC ([14]; Enterococcus): 8 µg/mL (≈ 25.6 µM)
- MIC ([15]; Enterococcus): 8 µg/mL (≈ 25.6 µM)
- MIC ([16]; Enterococcus): 16 µg/mL (≈ 51.2 µM)
- MIC ([17]; Enterococcus): 8 µg/mL (≈ 25.6 µM)
- MIC ([18]; Enterococcus): 8 µg/mL (≈ 25.6 µM)
- MIC ([19]; Enterococcus): 8 µg/mL (≈ 25.6 µM)
- MIC ([20]; Enterococcus): 8 µg/mL (≈ 25.6 µM)
- MIC ([21]; Enterococcus): 16 µg/mL (≈ 51.2 µM)
- MIC ([22]; Enterococcus): 8 µg/mL (≈ 25.6 µM)
- MIC ([23]; Enterococcus): 16 µg/mL (≈ 51.2 µM)
- MIC ([24]; Enterococcus): 16 µg/mL (≈ 51.2 µM)
- MIC ([25]; Enterococcus): 8 µg/mL (≈ 25.6 µM)
- MIC ([26]; Enterococcus): 16 µg/mL (≈ 51.2 µM)

Reference: US12378211B2, “Carbonic anhydrase inhibitors and antibiotics against multidrug resistant bacteria” (Purdue Research Foundation, priority 2018, dated 2025)
